Assay results reported in patent US20130158098A1, “Alkenyl Substituted Cycloaliphatic Compounds as Chemical Inducers of Proximity” (priority 2010, published 2013).

Test: ABA stability in fetal bovine serum (luciferase biofunctional readout)
Format: in vitro ADME
Conditions: 37° C.
Method: FIG. 3C provides the results of a stability test of ABA in cell culture conditions. CHO cells were pre-transfected with the activation and reporter DNA constructs for 24 hours. 100 μM ABA was then added to the culture and cells were assayed for luciferase activity after 10 hours. During the 10-hour incubation, the cell culture media were replaced with media containing freshly added ABA every 1, 2.5, 5 hour or no replacement. FIG. 4A illustrates the results of an experiment in which human serum pre-incubated ABA was used to induce luciferase transcription. ABA was incubated with pure non-heat inactivated human serum at 37° C. for indicated time period. ABA containing serum was then added to the CHO cell culture to a final 100 μM ABA concentration for 25 hours and cells were assayed for luciferase activity. The cells were pre-transfected with the activation and reporter DNA constructs for 24 hours. […]
In plants, ABA had been reported to be unstable due to active enzymatic degradation (Cutler, A. J. and Krochko, J. E. (1999) Formation and breakdown of ABA. Trends Plant Sci. 4, 472-478). […] The activity of residual ABA in the serum was measured by its ability to induce the transcriptional activation of the luciferase reporter in cells expressing the ABA-activator cassette. […] Using this assay, the bioavailability in mice was evaluated. […]

Q: Which results are given for CC1=CC(=O)CC(C)(C)C1(O)/C=C/C(C)=C/C(=O)O (centres unmarked) [ABA, abscisic acid]?
A: reduction in ability to induce transcription of luciferase (pure fetal bovine serum, up to 48 hours): no significant reduction; stability in fetal calf serum (pure heat inactivated fetal bovine serum): stable
